Assays:
AChE = AChE (Homo sapiens, UniProt P22303); assay: Anticholinesterase enzyme activity, modified Ellman method (AChE); format: biochemical
Procedure: Anticholinesterase enzyme activity studies were conducted to evaluate the inhibitory potential of the synthesized compounds (Table 2).
(§1) The anticholinesterase enzyme activities of the compounds were investigated using the modified Ellman method. The details of this method have been presented in detail in our previous studies.[25–27]

BChE = BChE (Homo sapiens, UniProt P06276); assay: Anticholinesterase enzyme activity, modified Ellman method (BChE); format: biochemical
Procedure: Anticholinesterase enzyme activity studies were conducted to evaluate the inhibitory potential of the synthesized compounds (Table 2). Upon analysis of the results, compounds 3h and 3i stood out due to their notable IC50 values.
as §1

MTT cytotoxicity assay = conditions: mouse
Procedure: Both the activity of a compound and its lack of cytotoxicity are criteria that determine whether it can be a potential drug candidate. To this end, the cytotoxic potential of the compounds was investigated on healthy fibroblast cells.
To spectroscopically determine the effects of the synthesized compounds on cell viability, MTT analysis was performed. This method is based on the fact that metabolically active living cells reduce the colorless MTT (3-(4,5-dimethylthiazol-2-yl)-2,5-diphenyltetrazolium) salt, converting it into purple formazan crystals. In the analysis, healthy NIH3T3 cell lines were seeded into 96-well plates at a cell density of […] and incubated with the compounds for 24 hours.[28–33]

Sequence of BChE (P06276 29-602, species assumed): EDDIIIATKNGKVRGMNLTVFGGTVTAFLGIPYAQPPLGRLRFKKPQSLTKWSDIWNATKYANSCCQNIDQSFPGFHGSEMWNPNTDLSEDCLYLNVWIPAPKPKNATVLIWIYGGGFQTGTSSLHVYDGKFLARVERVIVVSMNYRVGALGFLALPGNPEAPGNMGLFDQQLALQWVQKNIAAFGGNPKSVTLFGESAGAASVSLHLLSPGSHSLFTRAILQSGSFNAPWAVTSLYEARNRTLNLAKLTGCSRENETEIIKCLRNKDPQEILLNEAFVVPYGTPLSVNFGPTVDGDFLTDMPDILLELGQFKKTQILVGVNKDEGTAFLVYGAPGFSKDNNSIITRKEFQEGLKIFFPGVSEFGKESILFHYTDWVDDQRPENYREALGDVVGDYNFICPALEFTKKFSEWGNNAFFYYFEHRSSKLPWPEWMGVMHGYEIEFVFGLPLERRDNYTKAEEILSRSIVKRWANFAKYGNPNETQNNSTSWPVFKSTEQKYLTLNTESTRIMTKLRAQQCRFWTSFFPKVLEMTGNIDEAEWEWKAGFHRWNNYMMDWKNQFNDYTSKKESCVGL
Sequence of AChE (P22303 32-614): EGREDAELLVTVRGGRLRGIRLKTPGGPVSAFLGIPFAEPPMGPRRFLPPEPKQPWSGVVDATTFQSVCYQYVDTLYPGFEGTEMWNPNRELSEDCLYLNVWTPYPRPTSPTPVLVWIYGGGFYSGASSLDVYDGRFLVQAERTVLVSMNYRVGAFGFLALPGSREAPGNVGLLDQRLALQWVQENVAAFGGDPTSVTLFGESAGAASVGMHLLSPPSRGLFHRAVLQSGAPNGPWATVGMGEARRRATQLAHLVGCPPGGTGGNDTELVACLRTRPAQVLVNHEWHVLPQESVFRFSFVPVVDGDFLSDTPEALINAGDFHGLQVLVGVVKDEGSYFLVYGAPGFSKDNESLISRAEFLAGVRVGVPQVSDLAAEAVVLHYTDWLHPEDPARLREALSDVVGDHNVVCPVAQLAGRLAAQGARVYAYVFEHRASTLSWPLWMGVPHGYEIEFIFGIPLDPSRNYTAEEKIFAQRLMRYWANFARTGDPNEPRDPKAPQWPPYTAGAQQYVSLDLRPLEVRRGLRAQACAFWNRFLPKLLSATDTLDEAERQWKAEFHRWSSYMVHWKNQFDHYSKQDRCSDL

Row | Compound | IC50 (AChE) [µM] | IC50 (BChE) [µM] | IC50 at 24 h (MTT cytotoxicity assay) [µM]
1 | CCn1c(-c2ccccc2)csc1=NN=Cc1ccnc2ccccc12 [3a, 3-Ethyl-4-phenyl-2-((quinolin-4-ylmethylene)hydrazineylidene)-2,3-dihydrothiazole] | > 10 | > 10 | 
2 | CCn1c(-c2ccc(C)cc2)csc1=NN=Cc1ccnc2ccccc12 [3b, 3-Ethyl-2-((quinolin-4-ylmethylene)hydrazineylidene)-4-(p-tolyl)-2,3-dihydrothiazole] | > 10 | > 10 | 
3 | CCn1c(-c2ccc(OC)cc2)csc1=NN=Cc1ccnc2ccccc12 [3c, 3-Ethyl-4-(4-methoxyphenyl)-2-((quinolin-4-ylmethylene)hydrazineylidene)-2,3-dihydrothiazole] | 3.68 ± 0.109 | > 10 | 
4 | CCn1c(-c2ccc([N+](=O)[O-])cc2)csc1=NN=Cc1ccnc2ccccc12 [3d, 3-Ethyl-4-(4-nitrophenyl)-2-((quinolin-4-ylmethylene)hydrazineylidene)-2,3-dihydrothiazole] | > 10 | > 10 | 
5 | CCn1c(-c2ccc(F)cc2)csc1=NN=Cc1ccnc2ccccc12 [3e, 3-Ethyl-4-(4-fluorophenyl)-2-((quinolin-4-ylmethylene)hydrazineylidene)-2,3-dihydrothiazole] | 1.87 ± 0.678 | > 10 | 
6 | CCn1c(-c2ccc(Cl)cc2)csc1=NN=Cc1ccnc2ccccc12 [3f, 4-(4-Chlorophenyl)-3-ethyl-2-((quinolin-4-ylmethylene)hydrazineylidene)-2,3-dihydrothiazole] | 4.75 ± 0.098 | > 10 | 
7 | CCn1c(-c2ccc(C#N)cc2)csc1=NN=Cc1ccnc2ccccc12 [3g, 4-(3-Ethyl-2-((quinolin-4-ylmethylene)hydrazineylidene)-2,3-dihydrothiazol-4-yl)benzonitrile] | 9.96 ± 0.208 | > 10 | 
8 | CCn1c(-c2ccc(Cl)c(Cl)c2)csc1=NN=Cc1ccnc2ccccc12 [3h, 4-(3,4-Dichlorophenyl)-3-ethyl-2-((quinolin-4-ylmethylene)hydrazineylidene)-2,3-dihydrothiazole] | 0.107 ± 0.07 | > 10 | 36.1 ± 0.968
9 | CCn1c(-c2ccc(O)c(O)c2)csc1=NN=Cc1ccnc2ccccc12 [3i, 4-(3-Ethyl-2-((quinolin-4-ylmethylene)hydrazineylidene)-2,3-dihydrothiazol-4-yl)benzene-1,2-diol] | 0.027 ± 0.002 | > 10 | 19.8 ± 0.627
10 | COc1cccc2c1C(=O)c1c(O)c3c(c(O)c1C2=O)C[C@@](O)(C(=O)CO)C[C@@H]3O[C@H]1C[C@H](N)[C@H](O)[C@H](C)O1 [Doxorubicin, reference compound] |  |  | > 1000

— PMC13107341, “Quinoline/thiazole compounds as selective acetylcholinesterase inhibitors: synthesis and biological assessment” (RSC Medicinal Chemistry, 2026)
